From PubChem BioAssay (NCI)
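Growth conditions: 96-well plates. Treatment: test compound, 48 hours, 5 concentrations. Analysis: linear interpolation between bracketing concentrations; unreached endpoints set to highest concentration. The concentration for 50% growth inhibition is given as GI50. TGI: concentration producing complete growth inhibition.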

Key:
Assay in all cases: growth of human tumour cells (NCI), 48 h; in the data active = GI50 below about 0.43 µM; inactive = the rest
[1] = system: SK-MEL-5 melanoma
[2] = system: K-562 leukemia
[3] = system: HOP-62 NSCLC
[4] = system: A549 NSCLC
[5] = system: IGROV1 ovarian
[6] = system: HT29 colon
[7] = system: DU-145 prostate
[8] = system: OVCAR-8 ovarian
[9] = system: LOX IMVI melanoma
[10] = system: EKVX NSCLC
[11] = system: HS 578T breast
[12] = system: SF-539 CNS
[13] = system: SK-MEL-2 melanoma
[14] = system: UO-31 renal
[15] = system: MCF7 breast
[16] = system: MALME-3M melanoma
[17] = system: MDA-MB-435
[18] = system: MOLT-4 leukemia
[19] = system: RXF 393 renal
[20] = system: UACC-62 melanoma
[21] = system: CAKI-1 renal
[22] = system: SK-MEL-28 melanoma
[23] = system: A498 renal
[24] = system: BT-549 breast
[25] = system: NCI-H460 lung
[26] = system: OVCAR-4 ovarian
[27] = system: SW-620 colon
[28] = system: M14 melanoma
[29] = system: SN12C renal

COc1cc(C(=O)c2c(-c3ccccc3)oc3c(OC)cccc23)cc(OC)c1O
active: GI50 [2] 328 nM | GI50 [11] 405 nM | GI50 [12] 311 nM | GI50 [15] 351 nM | GI50 [17] 162 nM | GI50 [19] 313 nM | GI50 [21] 404 nM | GI50 [23] 378 nM | GI50 [25] 401 nM | GI50 [28] 351 nM
3530 nM: TGI [23]
2000 nM: TGI [19]
7310 nM: TGI [24]
> 100000 nM: TGI [2] | TGI [3] | TGI [4] | TGI [5] | TGI [7] | TGI [8] | TGI [9] | TGI [10] | TGI [13] | TGI [14] | TGI [15] | TGI [16] | TGI [18] | TGI [20] | TGI [22] | TGI [26] | TGI [27] | TGI [28] | TGI [29]
inactive: GI50 [1] 651 nM | GI50 [3] 641 nM | GI50 [4] 751 nM | GI50 [5] 654 nM | GI50 [6] 3150 nM | GI50 [7] 554 nM | GI50 [8] 631 nM | GI50 [9] 608 nM | GI50 [10] 876 nM | GI50 [13] 2280 nM | GI50 [14] 648 nM | GI50 [16] 509 nM | GI50 [18] 605 nM | GI50 [20] 583 nM | GI50 [22] 4090 nM | GI50 [24] 1190 nM | GI50 [26] 2820 nM | GI50 [27] 454 nM | GI50 [29] 1460 nM
26700 nM: TGI [21]
> 22100 nM: TGI [25]
459 nM: TGI [17]
8620 nM: TGI [1]
> 33700 nM: TGI [6]
2640 nM: TGI [12]
